Source: patent US12448389B2, “BRM targeting compounds and associated methods of use” (Prelude Therapeutics Incorporated, priority 2020, dated 2025)

Assays:
SMARCA2-HiBiT = biological target: T1, SMARCA2-HiBiT (Homo sapiens, UniProt P51531); experiment: SMARCA2 HiBiT degradation assay in HeLa cells; assay type: cell-based; conditions: 18 hours incubation; for DC50: read-out: HeLa_HiBit-SM2 DC50; for Dmax: HeLa, read-out: HeLa-HiBit-SM2 Dmax (%)
T1 construct: SMARCA2-HiBiT knock-in Hela monoclonal cell (CS302366); host or cells: HeLa monoclonal knock-in line (CRISPR HiBiT knock-in at the endogenous locus, heterozygous)
T1 sequence (P51531 whole entry): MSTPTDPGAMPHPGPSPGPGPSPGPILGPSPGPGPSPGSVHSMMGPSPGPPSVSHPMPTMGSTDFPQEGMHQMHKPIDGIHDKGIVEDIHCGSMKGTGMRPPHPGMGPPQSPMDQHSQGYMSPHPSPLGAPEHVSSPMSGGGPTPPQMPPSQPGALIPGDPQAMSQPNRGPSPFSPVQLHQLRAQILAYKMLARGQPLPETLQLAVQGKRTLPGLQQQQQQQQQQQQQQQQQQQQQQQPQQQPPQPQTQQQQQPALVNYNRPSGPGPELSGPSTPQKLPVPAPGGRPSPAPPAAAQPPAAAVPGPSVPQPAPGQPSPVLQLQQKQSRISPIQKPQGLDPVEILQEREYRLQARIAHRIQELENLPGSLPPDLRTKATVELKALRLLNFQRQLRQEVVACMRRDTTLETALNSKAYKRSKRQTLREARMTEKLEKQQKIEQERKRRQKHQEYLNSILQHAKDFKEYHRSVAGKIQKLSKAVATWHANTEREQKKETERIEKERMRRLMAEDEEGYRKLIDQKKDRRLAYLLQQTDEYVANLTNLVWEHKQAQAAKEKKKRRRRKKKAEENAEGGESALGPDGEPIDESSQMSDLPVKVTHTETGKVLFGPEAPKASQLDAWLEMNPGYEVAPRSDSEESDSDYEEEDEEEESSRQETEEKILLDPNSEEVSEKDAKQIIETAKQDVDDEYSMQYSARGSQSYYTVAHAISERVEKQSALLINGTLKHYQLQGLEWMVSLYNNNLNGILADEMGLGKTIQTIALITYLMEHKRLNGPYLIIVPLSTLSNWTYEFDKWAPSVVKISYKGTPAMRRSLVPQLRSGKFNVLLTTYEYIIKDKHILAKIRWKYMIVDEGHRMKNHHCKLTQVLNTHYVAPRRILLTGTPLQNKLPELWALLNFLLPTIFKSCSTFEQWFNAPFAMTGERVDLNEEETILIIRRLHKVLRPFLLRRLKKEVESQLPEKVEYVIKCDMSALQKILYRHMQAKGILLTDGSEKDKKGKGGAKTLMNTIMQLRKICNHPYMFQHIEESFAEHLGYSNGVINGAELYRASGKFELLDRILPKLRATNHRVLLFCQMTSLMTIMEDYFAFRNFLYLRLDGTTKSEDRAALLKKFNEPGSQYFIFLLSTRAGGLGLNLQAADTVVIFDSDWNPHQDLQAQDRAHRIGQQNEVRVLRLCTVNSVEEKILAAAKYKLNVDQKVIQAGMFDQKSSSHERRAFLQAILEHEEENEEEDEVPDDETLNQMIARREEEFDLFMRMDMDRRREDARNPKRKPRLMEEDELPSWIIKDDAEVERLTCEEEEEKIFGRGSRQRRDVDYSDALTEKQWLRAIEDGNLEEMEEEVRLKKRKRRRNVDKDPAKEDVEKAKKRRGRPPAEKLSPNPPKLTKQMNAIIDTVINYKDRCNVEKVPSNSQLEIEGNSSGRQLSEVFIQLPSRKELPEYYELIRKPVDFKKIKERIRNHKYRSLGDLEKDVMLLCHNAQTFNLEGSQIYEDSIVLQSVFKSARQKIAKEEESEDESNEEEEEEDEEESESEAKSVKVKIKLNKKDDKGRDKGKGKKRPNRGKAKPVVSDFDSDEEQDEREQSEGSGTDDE
Summary of the method: (§1)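 HeLa monoclonal lines with heterozygous HiBiT knock-in were seeded at 2500 cells/well in EMEM with 10% FBS and treated with compound for 18 h at 37 °C. Remaining tagged protein was measured by Nano-Glo HiBiT lytic luminescence after 30–60 min at RT, and values came from curve fitting.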

SMARCA4-HiBiT = biological target: T2, SMARCA4-HiBiT (Homo sapiens, UniProt P51532); experiment: SMARCA4 HiBiT degradation assay in HeLa cells; assay type: cell-based; conditions: 18 hours incubation; for DC50: read-out: HeLa-HiBit-SM4 DC50; for Dmax: HeLa, read-out: HeLa-HiBit-SM4 Dmax (%)
T2 construct: SMARCA4-HiBiT knock-in Hela monoclonal cell (CS3023226); host or cells: HeLa monoclonal knock-in line (CRISPR HiBiT knock-in at the endogenous locus, heterozygous)
T2 sequence (P51532 whole entry): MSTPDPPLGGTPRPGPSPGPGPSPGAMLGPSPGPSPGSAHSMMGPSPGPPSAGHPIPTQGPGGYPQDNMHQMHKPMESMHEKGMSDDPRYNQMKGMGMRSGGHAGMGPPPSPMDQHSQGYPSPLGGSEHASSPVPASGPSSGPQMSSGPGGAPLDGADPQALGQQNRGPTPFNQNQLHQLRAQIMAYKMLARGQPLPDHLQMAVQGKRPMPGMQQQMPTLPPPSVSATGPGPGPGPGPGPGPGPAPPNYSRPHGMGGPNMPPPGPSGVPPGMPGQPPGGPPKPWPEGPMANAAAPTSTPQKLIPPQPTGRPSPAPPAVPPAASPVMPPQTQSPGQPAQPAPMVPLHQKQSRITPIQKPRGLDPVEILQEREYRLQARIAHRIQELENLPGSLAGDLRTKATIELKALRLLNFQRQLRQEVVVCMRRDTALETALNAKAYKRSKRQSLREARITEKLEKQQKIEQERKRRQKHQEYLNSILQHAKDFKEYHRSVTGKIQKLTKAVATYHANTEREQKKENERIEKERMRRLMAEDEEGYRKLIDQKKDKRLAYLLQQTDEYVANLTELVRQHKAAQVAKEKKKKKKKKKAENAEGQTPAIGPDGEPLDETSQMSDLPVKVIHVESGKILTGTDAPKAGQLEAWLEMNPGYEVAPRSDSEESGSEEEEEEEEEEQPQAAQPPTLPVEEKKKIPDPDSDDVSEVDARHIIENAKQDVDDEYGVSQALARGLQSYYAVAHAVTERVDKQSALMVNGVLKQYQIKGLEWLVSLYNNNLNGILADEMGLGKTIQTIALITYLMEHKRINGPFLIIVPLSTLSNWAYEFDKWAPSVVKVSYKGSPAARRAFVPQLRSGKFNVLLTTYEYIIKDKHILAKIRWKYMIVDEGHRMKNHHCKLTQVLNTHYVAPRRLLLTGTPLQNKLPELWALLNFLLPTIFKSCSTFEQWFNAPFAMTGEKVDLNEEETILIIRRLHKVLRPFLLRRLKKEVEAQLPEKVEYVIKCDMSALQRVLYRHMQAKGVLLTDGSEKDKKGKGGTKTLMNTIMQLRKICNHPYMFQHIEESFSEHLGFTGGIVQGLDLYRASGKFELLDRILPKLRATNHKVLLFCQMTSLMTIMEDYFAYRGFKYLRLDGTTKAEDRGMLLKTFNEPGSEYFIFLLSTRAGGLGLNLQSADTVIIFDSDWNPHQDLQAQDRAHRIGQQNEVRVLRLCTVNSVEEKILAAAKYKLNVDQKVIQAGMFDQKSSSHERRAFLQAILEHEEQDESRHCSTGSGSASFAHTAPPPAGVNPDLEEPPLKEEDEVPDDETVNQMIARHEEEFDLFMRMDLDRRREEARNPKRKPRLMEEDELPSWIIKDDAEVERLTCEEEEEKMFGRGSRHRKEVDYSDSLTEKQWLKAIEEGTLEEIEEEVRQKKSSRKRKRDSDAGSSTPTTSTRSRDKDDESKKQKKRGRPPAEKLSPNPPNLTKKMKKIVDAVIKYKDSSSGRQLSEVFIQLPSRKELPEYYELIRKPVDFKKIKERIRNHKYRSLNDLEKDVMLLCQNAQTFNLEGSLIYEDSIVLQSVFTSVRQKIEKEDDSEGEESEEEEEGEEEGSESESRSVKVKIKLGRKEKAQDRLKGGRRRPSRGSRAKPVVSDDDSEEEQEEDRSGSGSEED
Summary of the method: as §1

Row | Structure (SMILES) | DC50 (SMARCA2-HiBiT) [nM] | Dmax (SMARCA2-HiBiT) [%] | DC50 (SMARCA4-HiBiT) [nM] | Dmax (SMARCA4-HiBiT) [%] | HeLa-HiBit-SM2 Dmax (%) (SMARCA2-HiBiT) | HeLa-HiBit-SM4 Dmax (%) (SMARCA4-HiBiT)
1 | O=C1CCC(N2C(=O)c3ccc(N4CCCC5(CCN(CCN6CCN7c8cc(-c9ccccc9O)nnc8NC[C@H]7C6)CC5)C4)cc3C2=O)C(=O)N1 (stereo partly drawn) [Example 94, 2-(2,6-dioxopiperidin-3-yl)-5-(9-(2-((S)-2-(2-hydroxyphenyl)-5,6,6a,7,9,10-hexahydro-8H-pyrazino[1′,2′:4,5]pyrazino[2,3-c]pyridazin-8-yl)ethyl)-2,9-diazaspiro [5.5]undecan-2-yl) isoindoline-1,3-dione] | < 10 | 50 to 75 | < 10 | 50 to 75 | – | –
2 | CN(CCNc1ccc2c(c1)C(=O)N(C1CCC(=O)NC1=O)C2=O)C1CCC(N2CCN3c4cc(-c5ccccc5O)nnc4NC[C@H]3C2)CC1 (stereo partly drawn) [Example 220, 2-(2,6-dioxopiperidin-3-yl)-5-((2-((4-((S)-2-(2-hydroxyphenyl)-5,6,6a,7,9,10-hexahydro-8H-pyrazino[1′,2′:4,5]pyrazino[2,3-c]pyridazin-8-yl)cyclohexyl)(methyl)amino)ethyl)amino) isoindoline-1,3-dione] | < 10 | 75 to 85 | < 10 | 75 to 85 | – | –
3 | O=C1CCC(N2Cc3cc(OCCN4CCC(N5CCN6c7cc(-c8ccccc8O)nnc7NC[C@H]6C5)CC4)ccc3C2=O)C(=O)N1 (stereo partly shown) [Example 238] | < 10 | > 85 | < 10 | 75 to 85 | – | –
4 | O=C1CCC(N2C(=O)c3ccc(N4CC[C@H](CN5C[C@@H]6[C@H](C5)[C@H]6CN5CCN6c7cc(-c8ccccc8O)nnc7NC[C@H]6C5)[C@@H](F)C4)cc3C2=O)C(=O)N1 (stereo partly drawn) [Example 194, 2-(2,6-dioxopiperidin-3-yl)-5-[(3R,4R)-3-fluoro-4-[[(1S,5R)-6-[[(10S)-4-(2-hydroxyphenyl)-1,5,6,8,12-pentazatricyclo[8.4.0.02,7]tetradeca-2(7),3,5-trien-12-yl]methyl]-3-azabicyclo[3.1.0]hexan-3-yl]methyl]piperidin-1-yl]isoindole-1,3-dione] | < 10 | – | < 10 | – | A (A=Dmax>85%) | B (B=75%<Dmax<=85%)
5 | C[C@H]1CN2c3cc(-c4ccccc4O)nnc3NC[C@H]2CN1C[C@H]1[C@@H]2CN(CC3CCN(c4ccc5c(c4)C(=O)N(C4CCC(=O)NC4=O)C5)CC3)C[C@@H]21 (stereo partly drawn) [Example 54, 3-(6-(4-(((1R,5S,6r)-6-(((6aS,9S)-2-(2-hydroxyphenyl)-9-methyl-5,6,6a,7,9,10-hexahydro-8H-pyrazino[1′,2′:4,5]pyrazino[2,3-c]pyridazin-8-yl)methyl)-3-azabicyclo[3.1.0]hexan-3-yl)methyl)piperidin-1-yl)-1-oxoisoindolin-2-yl)piperidine-2,6-dione] | < 10 | 75 to 85 | 10 to 100 | 50 to 75 | – | –
6 | O=C1CCC(N2C(=O)c3ccc(N4CCC(O)(CN5C[C@@H]6[C@@H](CN7CCN8c9cc(-c%10ccccc%10O)nnc9NC[C@H]8C7)[C@@H]6C5)CC4)cc3C2=O)C(=O)N1 (stereo partly drawn) [Example 47, 2-(2,6-dioxopiperidin-3-yl)-5-(4-hydroxy-4-(((1R,5S,6s)-6-(((S)-2-(2-hydroxyphenyl)-5,6,6a,7,9,10-hexahydro-811-pyrazino[1′,2′:4,5]pyrazino[2,3-c]pyridazin-8-yl)methyl)-3-azabicyclo[3.1.0]hexan-3-yl)methyl)piperidin-1-yl) isoindoline-1,3-dione] | < 10 | > 85 | < 10 | 50 to 75 | – | –
7 | O=C1CCC(N2C(=O)c3ccc(N4CCC(CN5CC6CC(C5)C6CN5CCN6c7cc(-c8ccccc8O)nnc7NC[C@H]6C5)CC4)cc3C2=O)C(=O)N1 (stereo partly drawn) [Example 39, 2-(2,6-dioxopiperidin-3-yl)-5-(4-((6-(((S)-2-(2-hydroxyphenyl)-5,6,6a,7,9,10-hexahydro-8H-pyrazino[1′,2′:4,5]pyrazino[2,3-c]pyridazin-8-yl)methyl)-3-azabicyclo[3.1.1]heptan-3-yl)methyl)piperidin-1-yl)isoindoline-1,3-dione] | < 10 | > 85 | < 10 | 50 to 75 | – | –
8 | C[C@@H]1C[C@H](CN2CCC(CN3CCN4c5cc(-c6ccccc6O)nnc5NC[C@H]4C3)CC2)CCN1c1ccc2c(c1)C(=O)N(C1CCC(=O)NC1=O)C2=O (stereo partly drawn) [Example 184, 2-(2,6-dioxopiperidin-3-yl)-5-[(2R,4R)-4-[[4-[[(10S)-4-(2-hydroxyphenyl)-1,5,6,8,12-pentazatricyclo[8.4.0.02,7]tetradeca-2,4,6-trien-12-yl]methyl]piperidin-1-yl]methyl]-2-methylpiperidin-1-yl]isoindole-1,3-dione] | < 10 | > 85 | < 10 | > 85 | – | –
9 | O=C1CCC(N2Cc3cc(N4CCO[C@@H](CN5C[C@@H]6[C@H](C5)[C@H]6CN5CCN6c7cc(-c8ccccc8O)nnc7NC[C@H]6C5)C4)ccc3C2=O)C(=O)N1 (stereo partly drawn) [Example 267, 3-(5-((S)-2-(((1R,5S,6R)-6-(((S)-2-(2-hydroxyphenyl)-5,6,6a,7,9,10-hexahydro-8H-pyrazino[1′,2′:4,5]pyrazino[2,3-c]pyridazin-8-yl)methyl)-3-azabicyclo[3.1.0]hexan-3-yl)methyl)morpholino)-1-oxoisoindolin-2-yl)piperidine-2,6-dione] | < 10 | > 85 | < 10 | 75 to 85 | – | –
10 | O=C1CCC(N2Cc3ccc(N4CC(CN5CCC(CN6CCN7c8cc(-c9ccccc9O)nnc8NC[C@H]7C6)CC5)C4)cc3C2=O)C(=O)N1 (stereo partly drawn) [Example 276, 3-(6-(3-((4-(((S)-2-(2-hydroxyphenyl)-5,6,6a,7,9,10-hexahydro-8H-pyrazino[1′,2′:4,5]pyrazino[2,3-c]pyridazin-8-yl)methyl)piperidin-1-yl)methyl)azetidin-1-yl)-1-oxoisoindolin-2-yl) piperidine-2,6-dione] | < 10 | > 85 | < 10 | > 85 | – | –
11 | O=C1CCC(N2Cc3ccc(N4CC[C@H](CN5CCN(C(=O)N6CCN7c8cc(-c9ccccc9O)nnc8NC[C@H]7C6)CC5)[C@@H](F)C4)cc3C2=O)C(=O)N1 (stereo partly drawn) [Example 205, 3-[5-[(3R.4R)-3-fluoro-4-[[4-[(10S)-4-(2-hydroxyphenyl)-1,5,6,8,12-pentazatricyclo[8.4.0.02,7]tetradeca-2,4,6-triene-12-carbonyl]piperazin-1-yl]methyl]piperidin-1-yl]-3-oxo-1H-isoindol-2-yl]piperidine-2.6-dione] | < 10 | > 85 | 10 to 100 | 75 to 85 | – | –
12 | O=C1CCC(N2C(=O)c3cccc(N4CCC(CCCN5CCC6(CCC(N7CCN8c9cc(-c%10ccccc%10O)nnc9NC[C@H]8C7)CC6)CC5)CC4)c3C2=O)C(=O)N1 (stereo partly drawn) [Example 72, 2-(2,6-dioxopiperidin-3-yl)-4-(4-(3-(9-((S)-2-(2-hydroxyphenyl)-5,6,6a,7,9,10-hexahydro-8H-pyrazino[1′,2′:4,5]pyrazino[2,3-c]pyridazin-8-yl)-3-azaspiro[5.5]undecan-3-yl)propyl)piperidin-1-yl)isoindoline-1,3-dione] | < 10 | 75 to 85 | < 10 | 50 to 75 | – | –
13 | CCC1Nc2nnc(-c3ccccc3O)cc2N2CCN(CC3CCN(CC4CCN(c5ccc6c(c5)C(=O)N(C5CCC(=O)NC5=O)C6=O)CC4)CC3)CC12 (stereo not shown) [Example 128, 2-(2,6-dioxopiperidin-3-yl)-5-(4-((4-((6-ethyl-2-(2-hydroxyphenyl)-5,6,6a,7,9,10-hexahydro-8H-pyrazino[1′,2′:4,5]pyrazino[2,3-c]pyridazin-8-yl)methyl)piperidin-1-yl)methyl)piperidin-1-yl)isoindoline-1,3-dione] | < 10 | > 85 | < 10 | > 85 | – | –
14 | NC1(C(=O)OCN2C(=O)CCC(N3C(=O)c4ccc(N5CCC(CN6CCC(CN7CCN8c9cc(-c%10ccccc%10O)nnc9NC[C@H]8C7)CC6)CC5)cc4C3=O)C2=O)CC1 (stereo partly drawn) [Example 131, (3-(5-(4-((4-(((S)-2-(2-hydroxyphenyl)-5,6,6a,7,9,10-hexahydro-8H-pyrazino[1′,2′:4,5]pyrazino[2,3-c]pyridazin-8-yl)methyl)piperidin-1-yl)methyl)piperidin-1-yl)-1,3-dioxoisoindolin-2-yl)-2,6-dioxopiperidin-1-yl)methyl 1-aminocyclopropane-1-carboxylate] | < 10 | > 85 | < 10 | > 85 | – | –
15 | CC1CC(CN2CCN3c4cc(-c5ccccc5O)nnc4NC[C@H]3C2)CCN1CC1CCN(c2cc3c(cc2F)C(=O)N(C2CCC(=O)NC2=O)C3=O)CC1 (stereo partly drawn) [Example 166, 2-(2,6-dioxopiperidin-3-yl)-5-fluoro-6-[4-[[4-[[(10S)-4-(2-hydroxyphenyl)-1,5,6,8,12-pentazatricyclo[8.4.0.02,7]tetradeca-2,4,6-trien-12-yl]methyl]-2-methylpiperidin-1-yl]methyl]piperidin-1-yl] isoindole-1,3-dione] | < 10 | > 85 | < 10 | > 85 | – | –
16 | CN(CCN1CCC(CN2CCN3c4cc(-c5ccccc5O)nnc4NC[C@H]3C2)CC1)c1ccc2c(c1)C(=O)N(C1CCC(=O)NC1=O)C2=O (stereo partly drawn) [Example 246, 2-(2,6-dioxopiperidin-3-yl)-5-((2-(4-(((S)-2-(2-hydroxyphenyl)-5,6,6a,7,9,10-hexahydro-8H-pyrazino[1′,2′:4,5]pyrazino[2,3-c]pyridazin-8-yl)methyl)piperidin-1-yl)ethyl)(methyl)amino)isoindoline-1,3-dione] | < 10 | 75 to 85 | < 10 | 50 to 75 | – | –
